From patent publication US11571484B2, “Compositions that target tumor-associated macrophages and methods of use therefor” (Sanford Burnham Prebys Medical Discovery Institute, priority 2017, dated 2023)
Ends that are not written are not given here. FAM = 5(6)-carboxyfluorescein; Ahx = NCCCCCC(=O)O

Experiments:
[1] = tested on: MRC1/CD206-expressing tumor-associated macrophages (MEMs) in 4T1 tumors; assay: Free peptide homing and immunofluorescence in the orthotopic 4T1 breast tumor model; conditions: 30 nmoles i.v.
Description: (SEQ ID NO: 5) control peptide were injected intravenously into 4T1 tumor-bearing mice and allowed to circulate for 2 h. Mice were then sacrificed and tumor and tissues were analyzed by immunofluorescence using rabbit anti-FAM (green) and rat anti-CD206 or rat anti-TIE2 (red) antibodies, and counterstained with DAPI. All images were taken under the same imaging conditions. FAM-UNO accumulated in macrophages within tumors and lymph nodes positive for CD206 staining (A, B, C) and TIE2 (D, and H: Blow up of D). […] To ascertain that anti-CD206 is capable of detecting CD206 in the liver, an image was acquired with longer exposure time from an uninjected animal (FIG. 25). […] Green: FAM-peptide; Red: CD206 or TIE2, Blue: DAPI. Representative fields from multiple sections prepared from at least 3 tumors (n≥3 mice) are shown.
Tumor models were induced according to protocols approved by the Estonian Ministry of Agriculture, Committee of Animal Experimentation (permit #48). For the 4T1 breast model, 8-week old female Balb/c mice were injected in the mammary fat pad with 10^6 cells dispersed in 50 μL of PBS. For homing studies, mice were used 10 days later, when the tumor had reached ˜150 mm^3. For MCF-7 breast model, 8-week old female nude mice were implanted with an estrogen pellet, and 1 week later inoculated with 5×10^6 MCF-7 cells in 100 μL of cold Matrigel (BD Biosciences, CA, USA). Mice were used for homing studies three weeks later (tumor volume˜150 mm^3). For the metastatic gastric carcinoma, 10^6 MKN45-P cells in PBS were injected intraperitoneally in 8-week old female nude mice. Mice were used for homing studies two weeks later. For the metastatic melanoma model, 2×10^5 B16F10 cells were injected intravenously in 100 μL of PBS in C57 BL6 mice. The mice were used for homing studies 10 days after. For the angiogenic glioblastoma model, WT-GBM 24, 7×10^5 cells were stereotactically injected in the right striatum of Fox/Nu mice 2 mm lateral and posterior of bregma of 2.5 mm deep. The mice were used for homing studies 6-7 days after the injection.
For free peptide homing studies, mice were injected intravenously with 30 nmoles of FAM-peptides in 100 μL of PBS. For nanoparticle homing studies-FAM-UNO—NP-PTX-, mice were injected intravenously in mice bearing MCF-7 breast tumors with 1 mg of Polymer in 100 μL pf PBS and allowed to circulate for 6 h. For tissue collection, the mice were anesthetized and the tissues collected and immediately placed in 4% cold PFA and left overnight at 4-C. Tissues were washed with PBS for 2 h at room temperature and cryoprotected with sucrose 15% at 4-C overnight and then in sucrose 30% at 4·C overnight. The tumor and the control organs were placed together in the same block with OCT compound (Leica Biosystems, Wetzlar, Germany), snap-frozen in isopentane, and sectioned at 10 μm. FAM was detected using Rabbit anti-FITC (Invitrogen, CA, USA. Catalog # A-889) at a dilution of 1/100 and using Alexa Fluor-546 anti-rabbit antibody (Invitrogen, Ca, USA. Catalog # A-11035) at a dilution of 1/200. CD31 was detected using rat anti-mouse CD31 (BD Biosciences, CA, USA. Catalog #: 553370), TIE2 was detected using rat anti-mouse TIE2 (Biolegend, CA, USA. Catalog #124001), CD209 was detected using rat anti-mouse CD209 (Biolegend, CA, USA. Catalog #147802), HLA ABC was detected using rat anti Human HLA ABC (Bio-Rad, CA, USA. Product code MCA485G), and CD206 was detected using ratanti-mouse CD206 (Bio-Rad, CA, USA. Product code MCA2235GA); using 1/100 primary antibody dilution and Alexa Fluor-647 anti-Rat antibody (Invitrogen, CA, USA. Catalog #21247) at 1/200 dilution. To quantify FAM signal from confocal images, the green channel of images taken by using 20× magnification objective was opened with ImageJ, converted to 8-bit grayscale and the integrated pixel intensity was measured. Different regions of tumors from three different mice were used.

recombinant mouse CD163 = biological target: T1, recombinant mouse CD163 (Mus musculus, UniProt Q2VLH6); assay: Fluorescence anisotropy assay with recombinant CD163; assay type: binding; conditions: 50 nM FAM peptide, 1 μM protein, 25 °C
T1 construct: purchased R&D Systems 7435-CD-050
Description: The recombinant mouse macrophage mannose receptor rmMMR/CD206 (R&D Systems, catalog number: 2535-MM-050) and recombinant mouse CD163 (R&D Systems, catalog number: 7435-CD-050) were reconstituted at 1 mg/ml in IB, aliquoted and stored at −20° C. To generate linearized version of cyclic FAM-UNO peptide, the peptide at 1 mM concentration was preincubated for 24 h at room temperature in a dark place with 3 mM DTT and diluted with IB 2×10^5 times before the FA assay. The control experiment with FAM-CPMTDNE peptide (FIG. 22) was performed to rule out the possibility of disulphide bond formation, which could affect the binding properties of linear peptides. […]
Fluorescence anisotropy was also carried out using recombinant human macrophage mannose receptor rhMMR/CD206 to determine whether UNO peptide interactions with mouse CD206 carried over to human CD206. […]
In all experiments, FA signal measurements were done under pseudo first-order conditions with 50 nM singly labelled FAM peptides and 1 μM proteins. […] Assays were carried out in kinetic mode in a total volume of 30 μl at 25° C. on the PHERAstar (BMG Labtech, Germany) microplate reader using an optical module with excitation and emission filters of 485 nm (slit 10 nm) and 520 nm (slit 10 nm), respectively. […] FA signals at time t after initiation of binding reaction was calculated as parameters r(t) from the equation: […]

T1 sequence (Q2VLH6 39-1121): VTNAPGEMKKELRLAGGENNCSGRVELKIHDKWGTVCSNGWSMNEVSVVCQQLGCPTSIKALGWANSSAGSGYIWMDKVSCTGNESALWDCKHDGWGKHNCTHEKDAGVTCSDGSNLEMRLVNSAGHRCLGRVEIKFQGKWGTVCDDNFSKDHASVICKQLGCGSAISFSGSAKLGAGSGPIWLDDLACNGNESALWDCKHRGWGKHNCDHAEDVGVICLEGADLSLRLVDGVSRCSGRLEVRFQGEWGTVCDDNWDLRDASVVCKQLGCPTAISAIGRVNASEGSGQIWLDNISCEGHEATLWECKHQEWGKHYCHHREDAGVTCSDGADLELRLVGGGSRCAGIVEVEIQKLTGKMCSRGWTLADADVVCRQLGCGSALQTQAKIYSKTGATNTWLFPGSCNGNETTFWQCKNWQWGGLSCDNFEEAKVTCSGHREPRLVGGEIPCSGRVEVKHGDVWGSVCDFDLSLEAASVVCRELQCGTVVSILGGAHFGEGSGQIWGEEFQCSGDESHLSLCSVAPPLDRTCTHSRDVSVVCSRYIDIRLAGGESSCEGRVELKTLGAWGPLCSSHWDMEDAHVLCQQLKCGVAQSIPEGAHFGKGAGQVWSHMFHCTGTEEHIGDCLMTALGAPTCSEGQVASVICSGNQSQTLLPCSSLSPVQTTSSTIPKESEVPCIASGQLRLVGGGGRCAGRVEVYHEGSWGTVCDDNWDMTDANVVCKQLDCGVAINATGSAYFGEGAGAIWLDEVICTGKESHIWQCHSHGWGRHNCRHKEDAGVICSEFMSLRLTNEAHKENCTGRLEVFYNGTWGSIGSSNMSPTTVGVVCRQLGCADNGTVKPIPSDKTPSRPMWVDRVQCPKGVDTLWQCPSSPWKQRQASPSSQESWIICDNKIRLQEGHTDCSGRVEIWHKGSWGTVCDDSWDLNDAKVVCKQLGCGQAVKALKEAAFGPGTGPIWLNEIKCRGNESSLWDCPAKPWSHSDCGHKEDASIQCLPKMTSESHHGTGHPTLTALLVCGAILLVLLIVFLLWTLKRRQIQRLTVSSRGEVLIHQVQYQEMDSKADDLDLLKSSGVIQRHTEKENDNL

Substance | accumulation in MEMs / tumor homing ([1]; 2 h circulation) | change in fluorescence anisotropy with CD163 (recombinant mouse CD163) | time the signal remained readily detectable in MEMs after administration [1] | accumulation in liver, heart, lungs and spleen ([1]; 2 h) | internalization in MEMs (high resolution confocal microscopy) ([1]; 2 h) | overlap with CD209 in sections from 4T1 tumors ([1]; 2 h) | cells positive for FAM-UNO that were also positive for CD206, in tumors ([1]; 2 h circulation) [%] | FAM fluorescence in the kidneys ([1]; 2 h time point)
FAM-CSPGAK: FAM-labeled linear CSPGAK (SEQ ID NO: 6) (not fully specified; FAM label) | accumulated in MEMs in orthotopic 4T1 breast tumor-bearing mice at levels comparable to FAM-UNO | no change in anisotropy |  |  |  |  |  | 
FAM-UNO: FAM-labeled UNO peptide CSPGAKVRC (SEQ ID NO: 1); 5(6)-carboxyfluorescein with 6-aminohexanoic acid spacer at the N-terminus ({FAM-Ahx}-CSPGAKVRC; cysteine pairing not given here) | accumulated in MEMs in tumors and in sentinel lymph nodes |  | up to 12 h | low | internalized in MEMs | only a moderate overlap with CD209 | 96 | FAM-fluorescence was observed in the kidneys
